Test results from patent US5747503A, “Selective inhibitors of biogenic amine transporters” (priority 1996, dated 1998).
Entries after “also recorded” stand apart in the source; their conditions may differ. Read-outs that look alike come from different tables or passages of the source.

Legend:
PCP site 1 = test: [^3 H](+)-MK801 binding to PCP site 1; parameters: species or system guinea pig
Description: Large batches of frozen membranes were prepared with minor modifications of published procedures (Rothman, et al. (1989), supra). Twenty to thirty frozen guinea pig brains with cerebellum were thawed for 15 minutes and homogenized with a Polytron in ice-cold 5 mM Tris-HCl, pH 8.0 (10 ml/brain). The homogenate was centrifuged at 37,000×g for 10 minutes, and the pellet was washed by resuspension in the same volume of buffer followed by recentrifugation. The pellets were resuspended in an equal volume of 5 mM Tris-HCl, pH 8.0, and the concentration was adjusted to 50 mM by the addition of 1M Tris-HCl, pH 8.0. The homogenate was centrifuged for 10 min at 37,000×g. The pellets were then washed three times by resuspension and centrifugation using 50 mM Tris-HCl, pH 8.0. The final pellets were resuspended in the Tris-HCl buffer (0.5 ml/brain), pooled and 1 ml aliquots were distributed to microfuge tubes, which were stored at -70° for assay. […]
(§1) Inhibition curves were fit to the two parameter logistic equation for the best-fit estimates of the IC50 using nonlinear least squares curve fitting methods as previously described (Rothman et al. (1993), supra); Jones, S. M. and Rogawski, M. A. Mol. Neuropharmacol. 2: 303-310 (1992)).
^a The binding assays for PCP (site 2) and PCP (site 1) were conducte
as previously reported (Rothman, R. B., et al., In: Multiple Sigma and PC
Receptor Ligands: Mechanisms for Neuromodulation and Protection 307-330
(Domino, E. F. and Kamenka, J. M., eds., 1992) using [^3 H]TCP in the
presence of (+)MK801 for site 2 and [^3 HMK801 for site 1 except that

[^3 H]5-HT uptake = Synaptosomal [^3 H]5-HT uptake inhibition; type: biochemical, rat; settings: for IC50: Table 2, nM ± SD, whole rat brain minus cerebellum synaptosomes
Description: (§2) Synaptosomal uptake assays were carried out as described (Rothman et al. (1993), supra). Briefly, synaptosomes were prepared by homogenization of rat striatum (for [^3 H]DA reuptake) or whole rat brain minus cerebellum (for [^3 H]5-HT reuptake) in ice-cold 10% sucrose, using a Potter-Elvehjem homogenizer. After a 1000×g centrifugation for 10 min at 4° C., the supernatants were retained on ice. The uptake assays were initiated by the addition of 100 μl of synaptosomes to 12×75 mm polystyrene test tubes, which were prefilled with 750 μl of [^3 H]ligand (2 nM [^3 H]5-HT or 5 nM [^3 H]DA) in a Krebs-phosphate buffer (pH 7.4), which contained ascorbic acid (1 mg/ml) and pargyline (50 μM) (buffer), 100 μl of test drugs made up in buffer containing 1 mg/ml bovine serum albumin, and 50 μl of buffer. The [^3 H]5-HT reuptake experiments were conducted in the presence of 100 nM nomifensine and […] GBR12935 in order to block any possible reuptake into NE and DA nerve terminals. […] The nonspecific uptake of each [^3 H]ligand was measured by incubations in the presence of 1 μM GBR12909 ([^3 H]DA) and 10 μM fluoxetine ([^3 H]5-HT). The incubations were terminated after a 15 min ([^3 H]DA) or 30 min ([^3 H]5-HT) incubation at 25° C. by adding 4 ml of wash buffer (10 mM TRIS-HCl, pH 7.4 containing 0.9% NaCl at 25° C.), followed by rapid filtration over Whatman GF/B filters and one additional wash cycle. […] The Krebs-phosphate buffer contained 154.5 mM NaCl, 2.9 mM KCl, 1.1 mM CaCl2, 0.83 mM MgCl2 and 5 mM glucose. The tritium retained on the filters was counted, in a Taurus beta counter, after an overnight extraction into ICN Cytoscint cocktail.
as §1
(§3) Synaptosomal uptake and ligand binding assays were conducted as described
(§4) above. Preliminary experiments were conducted to determine the doserange
(§5) Each [^3 H] ligand was displaced
(§6) by 10 concentrations of test drug. The data of two experiments were
(§7) pooled, and fit to the two parameter logistic equation for the bestfit
(§8) estimates of the IC50 reported above.

[^3 H]DA uptake = Synaptosomal [^3 H]DA uptake inhibition; type: biochemical, rat; settings: for IC50: Table 2, nM ± SD, rat striatum synaptosomes
Description: as §2, §1, §3, §4, §5, §6, §7, §8

NE transporter = target: T1, NE transporter (Rattus norvegicus, UniProt Q63380); test: [^3 H]Nisoxetine binding to NE transporter
T1 construct: from tissue; host or cells: brain membranes prepared by a cited method
T1 sequence (Q63380 1-617): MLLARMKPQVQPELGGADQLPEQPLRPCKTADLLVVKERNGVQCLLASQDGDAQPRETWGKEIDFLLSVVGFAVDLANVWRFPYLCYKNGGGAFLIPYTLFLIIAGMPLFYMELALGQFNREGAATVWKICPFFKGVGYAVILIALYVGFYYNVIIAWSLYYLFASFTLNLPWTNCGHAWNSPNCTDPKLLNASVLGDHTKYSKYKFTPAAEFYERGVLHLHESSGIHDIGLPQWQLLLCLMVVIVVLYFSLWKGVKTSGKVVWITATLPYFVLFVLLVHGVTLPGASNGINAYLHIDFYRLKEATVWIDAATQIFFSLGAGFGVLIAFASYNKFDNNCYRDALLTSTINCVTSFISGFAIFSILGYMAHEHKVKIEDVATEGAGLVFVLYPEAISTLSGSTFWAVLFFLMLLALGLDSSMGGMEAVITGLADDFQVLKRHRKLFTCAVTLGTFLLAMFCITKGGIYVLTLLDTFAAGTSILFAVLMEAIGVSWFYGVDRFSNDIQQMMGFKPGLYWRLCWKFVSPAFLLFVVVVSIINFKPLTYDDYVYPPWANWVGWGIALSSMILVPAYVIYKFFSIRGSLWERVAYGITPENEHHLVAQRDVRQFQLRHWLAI
Description: Membranes for the [^3 H]nisoxetine assay were prepared as described (Rothman, R. B., et al. Synapse 14: 34-39 (1993)).
The [^3 H]nisoxetine assay for the norepinephrine transporter (NE) was carried out as described (Rothman, et al. (1993), supra; Tejani-Butt, S. M., et al. Eur. J. Pharmacol. 191:239-243 (1990)). DA transporters were labeled with [^3 H)CFT with minor modifications of published protocols (Madras, B. K., et al. Mol. Pharmacol. 36: 518-524 (1989)). Briefly, 12×75 mm polystyrene test tubes were prefilled with 100 μl of drug, 100 μl of radiolabeled (1 nM final concentration), 50 μl of buffer. Drugs were dissolved in BB containing 1 mg/ml bovine serum albumin (BB/BSA). Radioligands were made to a final concentration in a protease inhibitor cocktail containing 1 mg/ml BSA {BB containing chymostatin (25 μg/ml), leupeptin (25 μg/ml), EDTA (100 μM), and EGTA (100 μM)}. The assay was initiated by the addition of 750 μl of membranes, prepared as described above. Brandel cell harvesters were used to filter the samples over Whatman GF/B filters, which were presoaked in wash buffer (ice-cold 10 mM TRIS-HCL, pH 7.4 containing 150 mM NaCl) containing 2% polyethylenimine. In this procedure, samples were filtered and then washed with two 4 ml aliquots of ice-cold wash buffer. Nonspecific binding was defined using 10 μM (final concentration) GBR12909. All subsequent steps were identical to those described above.
as §1, §3
Preliminary experiments were conducted to determine the doserange
The data of two experiments were
as §7

[1] = Table 2, nM ±, read-out: [^3 H]Nisoxetine Binding IC50

SMILES: C[C@]12N[C@H](Cc3ccccc31)c1ccccc12 [(+)-MK801]
- affinity for PCP site 1 in words (PCP site 1): high affinity
- IC50 (PCP site 1; Table 1, [^3 H]MK801): 4.58 ± 0.19 nM
- IC50 (PCP site 1; Table 2, nM ± SD): 4.58 ± 0.19 nM
- greater potency at PCP site 1 than PCP (PCP site 1; versus PCP): 25 fold
- [^3 H]5-HT uptake inhibition in words ([^3 H]5-HT uptake): negligible affinity
- IC50 ([^3 H]5-HT uptake): > 4700 nM
- [^3 H]DA uptake inhibition in words ([^3 H]DA uptake): negligible affinity
- IC50 ([^3 H]DA uptake): > 10000 nM
- [^3 H]nisoxetine binding / NE transporter affinity in words (NE transporter): negligible affinity
- IC50 (NE transporter; [1]): 6580 ± 860 nM

SMILES: CNC1CC(c2ccc(Cl)c(Cl)c2)c2ccccc21 (stereo not shown) [Indatraline]
- IC50 (PCP site 1): > 100000 nM
- affinity for PCP site 1 in words (PCP site 1): negligible affinity
- IC50 (PCP site 1; Table 2, nM ± SD): > 100000 nM
- [^3 H]5-HT uptake inhibition in words ([^3 H]5-HT uptake): potently inhibited; also recorded: potent inhibitor
- IC50 ([^3 H]5-HT uptake): 4.49 ± 0.21 nM
- [^3 H]DA uptake inhibition in words ([^3 H]DA uptake): potently inhibited; also recorded: potent inhibitor
- IC50 ([^3 H]DA uptake): 3.23 ± 0.45 nM

SMILES: c1ccc(C2(N3CCCCC3)CCCCC2)cc1 [PCP, phencyclidine]
- IC50 (PCP site 1; Table 1, [^3 H]MK801): 117 ± 3 nM
- IC50 (PCP site 1; Table 2, nM ± SD): 117 ± 3 nM
- IC50 ([^3 H]5-HT uptake): 1420 nM
- IC50 ([^3 H]DA uptake): 347 nM
- IC50 (NE transporter): 16630 ± 98 nM
- [^3 H]nisoxetine binding / NE transporter affinity in words (NE transporter): very low affinity

SMILES: CN1[C@H](Cc2ccccc2)C[C@H]2Cc3ccccc3[C@H]21 (relative stereo) [RTI-4793-14, (2RS, 3aSR, 8aRS)-1,2,3a,8,8a-Hexahydro-2-benzyl-1-methyl-indeno[1,2-b]pyrrole]
- IC50 (PCP site 1): > 36000 nM
- affinity for PCP site 1 in words (PCP site 1): low affinity
- IC50 (PCP site 1; Table 1, [^3 H]MK801): > 20000 nM
- IC50 (PCP site 1; Table 2, nM ± SD): > 36000 nM
- IC50 (PCP site 1; Table 3, guinea pig membranes): > 2000 nM
- [^3 H]5-HT uptake inhibition in words ([^3 H]5-HT uptake): moderate potency
- IC50 ([^3 H]5-HT uptake): 1020 ± 72 nM
- [^3 H]DA uptake inhibition in words ([^3 H]DA uptake): moderate potency
- IC50 ([^3 H]DA uptake): 547 ± 20 nM
- [^3 H]nisoxetine binding / NE transporter affinity in words (NE transporter): moderate potency
- IC50 (NE transporter; [1]): 609 ± 48 nM
